Results on eight compounds are retold here after ChEMBL document CHEMBL1800038, “Kabiramides J and K, trisoxazole macrolides from the sponge Pachastrissa nux” (J Nat Prod, 2011).

Activity calls are given as the source filed them. No cut-off for these calls is given here.

The test system of assay [1] is Plasmodium falciparum. In words: Antimalarial activity against multidrug-resistance Plasmodium falciparum K1 assessed as growth inhibition by microdilution radioisotope technique. Format: functional, organism-based.
In the next assay the test system is MCF7. In words: Cytotoxicity against human MCF7 cells by SRB assay. It is filed as functional, cell-based. On the technique in general: The SRB assay estimates cell density from bound dye.
Assay [2] can be described thus: Cytotoxicity against human Fibroblasts by SRB assay. It is filed as cell-based. The conditions noted are these: Fibroblast.
Assay [3] concerns Plasmodium falciparum. In words: Antimalarial activity against multidrug-resistance Plasmodium falciparum K1 assessed as growth inhibition at […] by microdilution radioisotope technique. Format: functional, organism-based. A general note: Broth dilution looks for growth in wells or tubes with falling amounts of substance.

In the case of `C[C@H]1[C@@H](O)O[C@@H]2O[C@@]3(C)CC[C@H]4[C@H](C)CC[C@@H]1[C@@]24OO3` [ARTENIMOL], the 50% inhibitory concentration (IC50) (in general, the concentration that inhibits the measured activity by half) in the assay with Plasmodium falciparum [1] was determined as 3.8 nM.
With `CC[C@@]1(O)C(=O)OCc2c1cc1n(c2=O)Cc2cc3ccccc3nc2-1` [CAMPTOTHECIN], the 50% inhibitory concentration (IC50) in the assay on MCF7 stood at 1.6 nM; in assay [2], 459 nM.
As to `CO[C@H]([C@H](C)/C=C/N(C)C=O)[C@@H](C)C(=O)CC[C@H](C)[C@H](C[C@@H]1OC(=O)C[C@@H](OC(N)=O)C[C@H](C)C[C@H](O)[C@H](C)[C@@H](OC)c2coc(n2)-c2coc(n2)-c2coc(n2)/C=C/C[C@H](O)[C@H]1C)OC` [KABIRAMIDE B], the values for the concentration for half-maximal inhibition (IC50) (with MCF7; in the assay on Plasmodium falciparum [1]; in assay [2]) were 450 nM, 1670 nM and 950 nM, respectively.
Take `CO[C@H]([C@H](C)/C=C/N(C)C=O)[C@@H](C)C(=O)CC[C@H](C)[C@H](C[C@@H]1OC(=O)C[C@@H](OC(N)=O)C[C@H](C)C[C@H](O)[C@H](C)[C@@H](OC)c2coc(n2)-c2coc(n2)-c2coc(n2)/C=C/C[C@H](OC)[C@H]1C)OC` [KABIRAMIDE C]: the IC50 is 470 nM in the assay on MCF7, 4790 nM with Plasmodium falciparum [1] and 7590 nM in assay [2].
Taken in the same sequence, the figures for `CO[C@H]([C@H](C)/C=C/N(C)C=O)[C@@H](C)C(=O)CC[C@H](C)[C@H](C[C@@H]1OC(=O)C[C@@H](O)C[C@H](C)C[C@H](O)[C@H](C)[C@@H](OC)c2coc(n2)-c2coc(n2)-c2coc(n2)/C=C/C[C@H](OC)[C@H]1C)OC` [KABIRAMIDE D] were 20 nM, 1870 nM and 500 nM.
`CO[C@H]1C/C=C/c2nc(co2)-c2nc(co2)-c2nc(co2)[C@H](OC)[C@@H](C)[C@@H](O)C[C@@H](C)C[C@H](OC(N)=O)CC(=O)O[C@@H](C[C@H](OC)[C@@H](C)CCC(=O)/C(C)=C/[C@H](C)/C=C/N(C)C=O)[C@@H]1C` [KABIRAMIDE G]: the half-inhibitory concentration (IC50) in the assay on MCF7 was 20 nM; in assay [2], 2370 nM. Further, the inhibition result in the assay on Plasmodium falciparum [3] was “inactive”.
Regarding `CO[C@@H](C[C@@H]1OC(=O)C[C@@H](OC(N)=O)C[C@H](C)C[C@H](O)[C@H](C)[C@@H](OC)c2coc(n2)-c2coc(n2)-c2coc(n2)/C=C/C[C@H](O)[C@H]1C)[C@@H](C)CCC(=O)/C(C)=C/[C@H](C)/C=C/N(C)C=O` [KABIRAMIDE J], the figures for the IC50 with MCF7 and with Plasmodium falciparum [1] were 20 nM and 310 nM, respectively.
Taken in the same sequence, the figures for `CO[C@H]1C/C=C/c2nc(co2)-c2nc(co2)-c2nc(co2)[C@H](OC)[C@@H](C)[C@@H](O)C[C@@H](C)C[C@H](O)CC(=O)O[C@@H](C[C@H](OC)[C@@H](C)CCC(=O)/C(C)=C/[C@H](C)/C=C/N(C)C=O)[C@@H]1C` [KABIRAMIDE K] were 70 nM and 390 nM.
